Measurements published in article PMC8042770, “Odorant Receptors for Detecting Flowering Plant Cues Are Functionally Conserved across Moths and Butterflies” (Molecular Biology and Evolution, 2020).
Where two headings read alike, the source gives them in different places. Values belong to the compound of their own block, whether it stands above or below them.

Experiments:
HarmOR60 = target: T1, HarmOR60 (Helicoverpa armigera, UniProt A0A7T3N1B9); assay: Xenopus oocyte two-electrode voltage clamp, HarmOR60 + Orco; type: cell-based; settings: HarmOR60; dose response in oocytes; unit M
T1 sequence (A0A7T3N1B9 1-391): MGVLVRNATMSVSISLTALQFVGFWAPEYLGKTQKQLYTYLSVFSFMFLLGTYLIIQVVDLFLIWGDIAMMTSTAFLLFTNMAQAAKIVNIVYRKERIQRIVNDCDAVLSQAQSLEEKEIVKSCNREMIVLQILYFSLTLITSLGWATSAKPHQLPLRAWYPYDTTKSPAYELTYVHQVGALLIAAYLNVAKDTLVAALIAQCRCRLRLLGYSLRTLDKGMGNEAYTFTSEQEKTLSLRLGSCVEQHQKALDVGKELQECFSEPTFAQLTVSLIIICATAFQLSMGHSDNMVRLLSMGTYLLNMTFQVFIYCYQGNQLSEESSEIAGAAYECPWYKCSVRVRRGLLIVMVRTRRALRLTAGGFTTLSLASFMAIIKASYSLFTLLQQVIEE
Method: (§1) In order to expand our analysis on the response properties of HarmORs, we conducted dose–response analyses for the 28 functional HarmORs. […] Six HarmORs (OR3, 22, 48, 50, 56, and 66) could not be activated by any ligand at 10^−5 M. For the other 22 HarmORs, dose–response curves were generated and EC50 values of their major ligands were calculated (fig. 2A and supplementary table S2, Supplementary Material online). The HarmOR repertoire was highly efficient in terpene detection, since the lowest EC50 values were obtained for such compounds. Many of these terpenes have been proposed to be defensive chemicals of plants. […] DMNT is also one of the oviposition deterring compounds found in larval frass of some Lepidoptera species such as S. littoralis ([Anderson et al. 1993]).
(§2) Functional characterization of individual ORs was performed by heterologous expression in Xenopus oocytes combined with a two-electrode voltage-clamp system ([Wang et al. 2010]). Briefly, the full-length gene of each OR and Orco were subcloned into the eukaryotic expression vector pT7TS. cRNAs were generated from linearized expression vectors using the mMESSAGE mMACHINE T7 kit (Ambion, Austin, TX). Then, the cRNA mixture of ORx and Orco (27.6 ng each) was injected (Nanoliter 2010, WPI Inc., Sarasota, FL) into oocytes (stage V–VII). The respective Orcos of different species were used for functional studies of OR42 orthologs except for the four butterfly species (V. tameamea, P. xuthus, D. plexippus, and P. rapae), in which we used the Orco from P. xuthus. After incubation in nutrient solution at 18 °C for 3–5 days, the response profile of each oocyte to multiple plant odorants was recorded via a two-electrode voltage clamp (OC-725C oocyte clamp, Warner Instruments, Hamden, CT) at a holding potential of −80 mV. Data were acquired by using a Digidata 1440 A and were analyzed by pCLAMP 10.2 software (Axon Instruments Inc., Union City, CA). […]

HarmOR59 = HarmOR59 (Helicoverpa armigera, UniProt A0A7T3KAU6); assay: Xenopus oocyte two-electrode voltage clamp, HarmOR59 + Orco; type: cell-based
Method: as §1
(§3) Functional characterization of individual ORs was performed by heterologous expression in Xenopus oocytes combined with a two-electrode voltage-clamp system ([Wang et al. 2010]). Briefly, the full-length gene of each OR and Orco were subcloned into the eukaryotic expression vector pT7TS. cRNAs were generated from linearized expression vectors using the mMESSAGE mMACHINE T7 kit (Ambion, Austin, TX). Then, the cRNA mixture of ORx and Orco (27.6 ng each) was injected (Nanoliter 2010, WPI Inc., Sarasota, FL) into oocytes (stage V–VII). The respective Orcos of different species were used for functional studies of OR42 orthologs except for the four butterfly species (V. tameamea, P. xuthus, D. plexippus, and P. rapae), in which we used the Orco from P. xuthus. After incubation in nutrient solution at 18 °C for 3–5 days, the response profile of each oocyte to multiple plant odorants was recorded via a two-electrode voltage clamp (OC-725C oocyte clamp, Warner Instruments, Hamden, CT) at a holding potential of −80 mV. Data were acquired by using a Digidata 1440 A and were analyzed by pCLAMP 10.2 software (Axon Instruments Inc., Union City, CA).
(§4) Stock solutions of each odorant were prepared at 1 M using DMSO as a solvent, and each odorant was diluted in 1× Ringer’s solution to the indicated concentrations for electrophysiological recording. For functional screening of each HarmOR, a panel of 67 odorants belonging to three types of chemical classes: terpenes, aromatics, and aliphatics (short-chain fatty acid) were used (supplementary table S1, Supplementary Material online). For functional studies of OR42 orthologs from different species, six odorants including PAA, benzaldehyde, (E)-2-hexen-1-al, cinnamaldehyde, 2-phenylethanol, and heptanal were used.

[1] = test system: H. armigera moth antennae; assay: Electroantennography (EAG), wild-type vs HarmOR42 knock-out moths; type: in vivo, Helicoverpa armigera; settings: single odorants, 1 μg
Text: We next conducted a loss-of-function study by generating a HarmOR42-lacking H. armigera strain by CRISPR/Cas9 targeting the first coding exon. Homozygous mutants were obtained with a large segment deletion of 203 bp and a 6-bp nonhomologous insertion in the genome (fig. 6B), introducing a premature stop codon in the coding sequence. […] The most likely hypothesis is that HarmOR42 is not the major receptor for sensing this compound in H. armigera. As a control, we tested the response of male moths to the sex pheromone component Z11-16: Ald that is not a ligand of HarmOR42. As expected, we observed no difference between the EAG responses of mutant and wild-type moths to this compound.
The antennae of 2- to 3-day-old virgin male and female moths were cut at the base of the flagellum. After removing the tip, one antenna was inserted between two glass electrodes filled with 0.1 M KCl solution. In each test, a 10-μl solution of each odorant was added onto a piece of filter paper (0.5 cm × 0.5 cm) and then inserted into a Pasteur pipette. About 100 ng/μl stock solutions of individual odorants and different doses of the mixture IAC were prepared with paraffin oil. A continuous airflow of 30 ml/s was produced by a stimulus controller (CS-55, Syntech, Kirchzarten, Germany). Odor stimulation was controlled by a puff of purified air (0.2 s at 10 ml/s airflow) from the CS-55. EAG signals were amplified with a 10× AC/DC headstage preamplifier (Syntech) and further acquired with an Intelligent Data Acquisition Controller (IDAC-4-USB, Syntech) ([Cao et al. 2016]). The signals were recorded, monitored, and analyzed using Syntech EAG-software (Syntech, Germany). The EAG response values for each compound were calculated by subtracting the value of the same antennae corresponding to a solvent blank of paraffin oil.

HarmOR repertoire = assay: Responses of the 28 functional HarmORs across odorant doses (PCA of oocyte currents); type: cell-based, Helicoverpa armigera; settings: odorant 10^−7 M
Text: Vectors quantifying the responses of the 28 ORs to each odorant were projected onto a 3D landscape. This 3D representation captured 78.34% (10^−4 M), 65.11% (10^−5 M), 68.89% (10^−6 M), and 84.52% (10^−7 M) of the variation in the original 28D data set across different odorant concentrations. […] In addition, the capacity of the H. armigera odor space was highly dependent on odorant concentration. As the concentrations of odorants decreased, their positions in the odor space converged, with the ability to discriminate different odorants diminishing.
as §3, §4
Graphs and data statistics of OR response spectra, dose responses, EAG, and behavioral experiments were generated by Prism 7 (GraphPad Software, La Jolla, CA). A heat map was generated in Excel 2010 (Microsoft Corporation, WA). […] For tuning breadth analysis, the kurtosis values (K) were calculated by SPSS 22 (SPSS Inc., Chicago, IL) and were used to define the tuning spectra width, where smaller K values represent broader tuning spectra (fig. 1B). […]

HarmOR42 = HarmOR42 (Helicoverpa armigera, UniProt A0A7T3KAF6); assay: Xenopus oocyte two-electrode voltage clamp, HarmOR42 + Orco; type: cell-based; settings: 67 odorants at 10^−4 M
Text: In preliminary screening, we used a high dosage (10^−4 M) of odorants. […] Most functional ORs responded robustly to multiple odorants. The strongest response (up to ∼6,000 nanoampere, nA) we detected was that of HarmOR42 toward the aromatic compound PAA. Further, the response profiles of the 28 HarmORs appeared to be highly differentiated, with no apparent overlap in their tuning spectra (with the exception of HarmOR12 and 36) according to functional cluster analysis (fig. 1A).
as §1, §3, §4

HarmOR23 = HarmOR23 (Helicoverpa armigera, UniProt A0A7T3KAE3); assay: Xenopus oocyte two-electrode voltage clamp, HarmOR23 + Orco; type: cell-based; settings: dose response in oocytes, unit M printed in text only
Method: as §1, §2

HarmOR40 = target: T2, HarmOR40 (Helicoverpa armigera, UniProt A0A7T3KBF4); assay: Xenopus oocyte two-electrode voltage clamp, HarmOR40 + Orco; type: cell-based; settings: HarmOR40; dose response in oocytes; unit M printed in text only; read-out: EC50
T2 sequence (A0A7T3KBF4 1-401): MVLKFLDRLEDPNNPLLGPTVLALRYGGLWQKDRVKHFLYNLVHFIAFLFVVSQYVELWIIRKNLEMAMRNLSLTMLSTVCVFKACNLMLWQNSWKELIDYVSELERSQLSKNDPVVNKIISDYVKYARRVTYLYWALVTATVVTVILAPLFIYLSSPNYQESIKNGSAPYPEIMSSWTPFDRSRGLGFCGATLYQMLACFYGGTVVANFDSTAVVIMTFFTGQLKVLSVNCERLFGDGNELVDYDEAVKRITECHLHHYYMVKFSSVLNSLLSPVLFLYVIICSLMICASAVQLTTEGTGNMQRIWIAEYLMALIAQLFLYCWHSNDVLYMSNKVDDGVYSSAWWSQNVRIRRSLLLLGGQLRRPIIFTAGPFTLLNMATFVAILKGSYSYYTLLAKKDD
Method: as §1, §3, §4

HarmOR12 = HarmOR12 (Helicoverpa armigera, UniProt A0A172QGF5); assay: Xenopus oocyte two-electrode voltage clamp, HarmOR12 + Orco; type: cell-based
Text: (§5) In order to expand our analysis on the response properties of HarmORs, we conducted dose–response analyses for the 28 functional HarmORs. […] Many of these terpenes have been proposed to be defensive chemicals of plants.
(§6) Briefly, the full-length gene of each OR and Orco were subcloned into the eukaryotic expression vector pT7TS. cRNAs were generated from linearized expression vectors using the mMESSAGE mMACHINE T7 kit (Ambion, Austin, TX). […] The respective Orcos of different species were used for functional studies of OR42 orthologs except for the four butterfly species (V. tameamea, P. xuthus, D. plexippus, and P. rapae), in which we used the Orco from P. xuthus.
as §4

HarmOR36 = HarmOR36 (Helicoverpa armigera, UniProt A0A7T3N0K7); assay: Xenopus oocyte two-electrode voltage clamp, HarmOR36 + Orco; type: cell-based; settings: dose response in oocytes, unit M
Method: as §1, §3, §4

HarmOR31 = HarmOR31 (Helicoverpa armigera, UniProt A0A7T3N2E9); assay: Xenopus oocyte two-electrode voltage clamp, HarmOR31 + Orco; type: cell-based; settings: HarmOR31; dose response in oocytes; unit M; read-out: EC50
Text: as §5, §6, §4

HarmOR52 = HarmOR52 (Helicoverpa armigera, UniProt A0A7T3KAH2); assay: Xenopus oocyte two-electrode voltage clamp, HarmOR52 + Orco; type: cell-based
Method: as §1, §3, §4

[2] = HarmOR59, dose response in oocytes, unit M, read-out: EC50

HarmOR59, sequence (A0A7T3KAU6 entry or part of it): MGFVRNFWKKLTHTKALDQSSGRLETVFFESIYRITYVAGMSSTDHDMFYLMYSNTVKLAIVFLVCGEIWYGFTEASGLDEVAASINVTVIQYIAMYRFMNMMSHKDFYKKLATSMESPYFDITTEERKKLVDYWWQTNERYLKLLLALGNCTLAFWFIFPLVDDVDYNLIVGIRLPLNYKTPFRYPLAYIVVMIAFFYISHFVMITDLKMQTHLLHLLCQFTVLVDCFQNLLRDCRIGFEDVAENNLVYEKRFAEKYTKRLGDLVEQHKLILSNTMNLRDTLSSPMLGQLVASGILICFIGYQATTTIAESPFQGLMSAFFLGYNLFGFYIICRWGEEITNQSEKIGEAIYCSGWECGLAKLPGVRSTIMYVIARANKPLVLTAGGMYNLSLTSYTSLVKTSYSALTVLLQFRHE
HarmOR12, sequence (A0A172QGF5 entry or part of it): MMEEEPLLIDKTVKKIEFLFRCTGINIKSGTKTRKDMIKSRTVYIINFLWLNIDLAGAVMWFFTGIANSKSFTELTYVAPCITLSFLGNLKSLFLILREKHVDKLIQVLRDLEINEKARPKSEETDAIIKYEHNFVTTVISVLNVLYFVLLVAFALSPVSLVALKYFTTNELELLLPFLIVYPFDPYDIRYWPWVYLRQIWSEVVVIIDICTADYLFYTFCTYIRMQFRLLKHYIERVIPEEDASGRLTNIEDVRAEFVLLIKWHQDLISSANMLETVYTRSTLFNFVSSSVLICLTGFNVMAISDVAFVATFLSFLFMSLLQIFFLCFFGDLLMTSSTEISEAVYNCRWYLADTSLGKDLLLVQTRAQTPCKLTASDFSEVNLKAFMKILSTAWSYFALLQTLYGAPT
HarmOR42, sequence (A0A7T3KAF6 entry or part of it): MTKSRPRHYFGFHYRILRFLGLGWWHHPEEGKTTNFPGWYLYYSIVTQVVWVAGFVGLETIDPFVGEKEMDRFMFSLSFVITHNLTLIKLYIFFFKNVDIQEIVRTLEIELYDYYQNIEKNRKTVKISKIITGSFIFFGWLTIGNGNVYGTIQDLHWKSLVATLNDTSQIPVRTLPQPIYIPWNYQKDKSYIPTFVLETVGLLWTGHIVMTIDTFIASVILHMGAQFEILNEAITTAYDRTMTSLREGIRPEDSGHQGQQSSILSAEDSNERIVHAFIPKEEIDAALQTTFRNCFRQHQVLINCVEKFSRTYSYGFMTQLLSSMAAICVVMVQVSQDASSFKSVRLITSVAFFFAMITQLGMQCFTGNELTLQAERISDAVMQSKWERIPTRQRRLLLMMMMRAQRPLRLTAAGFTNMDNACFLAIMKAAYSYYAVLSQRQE
HarmOR36, sequence (A0A7T3N0K7 entry or part of it): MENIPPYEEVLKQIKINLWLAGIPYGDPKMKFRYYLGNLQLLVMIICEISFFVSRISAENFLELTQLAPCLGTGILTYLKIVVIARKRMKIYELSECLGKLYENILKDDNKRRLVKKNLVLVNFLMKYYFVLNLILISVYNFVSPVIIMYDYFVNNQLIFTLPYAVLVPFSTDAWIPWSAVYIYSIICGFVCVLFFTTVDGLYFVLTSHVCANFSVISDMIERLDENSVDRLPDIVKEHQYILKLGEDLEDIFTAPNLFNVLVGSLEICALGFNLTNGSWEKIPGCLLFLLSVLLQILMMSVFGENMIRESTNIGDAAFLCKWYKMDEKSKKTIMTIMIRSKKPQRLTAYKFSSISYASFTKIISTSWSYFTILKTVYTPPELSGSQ
HarmOR52, sequence (A0A7T3KAH2 entry or part of it): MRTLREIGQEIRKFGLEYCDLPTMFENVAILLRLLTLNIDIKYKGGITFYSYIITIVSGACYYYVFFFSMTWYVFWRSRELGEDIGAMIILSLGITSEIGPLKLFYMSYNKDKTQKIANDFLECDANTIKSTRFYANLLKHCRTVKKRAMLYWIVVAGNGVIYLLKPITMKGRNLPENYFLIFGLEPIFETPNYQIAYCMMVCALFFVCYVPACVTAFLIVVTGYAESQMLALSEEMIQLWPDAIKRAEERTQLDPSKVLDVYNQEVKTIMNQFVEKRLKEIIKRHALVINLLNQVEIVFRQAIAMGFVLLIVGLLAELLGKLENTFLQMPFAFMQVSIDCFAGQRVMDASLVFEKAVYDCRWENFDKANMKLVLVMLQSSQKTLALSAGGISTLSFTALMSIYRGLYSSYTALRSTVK
HarmOR23, sequence (A0A7T3KAE3 entry or part of it): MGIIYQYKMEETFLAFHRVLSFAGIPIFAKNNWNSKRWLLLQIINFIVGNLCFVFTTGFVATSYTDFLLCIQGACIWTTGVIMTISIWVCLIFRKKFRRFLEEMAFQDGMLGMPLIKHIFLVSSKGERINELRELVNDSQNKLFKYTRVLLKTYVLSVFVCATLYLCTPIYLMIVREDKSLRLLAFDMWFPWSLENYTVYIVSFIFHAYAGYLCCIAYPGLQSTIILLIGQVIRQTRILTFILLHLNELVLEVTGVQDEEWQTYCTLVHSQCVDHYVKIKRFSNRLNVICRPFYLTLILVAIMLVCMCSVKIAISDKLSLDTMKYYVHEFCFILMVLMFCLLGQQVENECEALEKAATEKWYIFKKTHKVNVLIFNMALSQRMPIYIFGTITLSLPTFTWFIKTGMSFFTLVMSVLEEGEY
HarmOR31, sequence (A0A7T3N2E9 entry or part of it): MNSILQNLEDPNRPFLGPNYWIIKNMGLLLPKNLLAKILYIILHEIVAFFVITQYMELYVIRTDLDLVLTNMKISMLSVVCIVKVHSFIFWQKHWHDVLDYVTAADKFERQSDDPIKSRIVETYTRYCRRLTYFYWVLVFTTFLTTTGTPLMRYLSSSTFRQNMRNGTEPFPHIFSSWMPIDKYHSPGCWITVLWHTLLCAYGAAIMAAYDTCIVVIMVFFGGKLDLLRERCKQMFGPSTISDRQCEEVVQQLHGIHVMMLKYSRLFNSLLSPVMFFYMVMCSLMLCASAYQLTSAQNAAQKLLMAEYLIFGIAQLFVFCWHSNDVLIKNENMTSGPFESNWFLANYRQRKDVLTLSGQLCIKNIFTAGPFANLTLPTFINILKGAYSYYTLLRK

Compound: C[C@@H]1CC[C@H]2C(C)(C)[C@H]3C[C@@]12CC[C@@]3(C)O [Cedrol]
EC50 (HarmOR60): 8.6 µM

EC50 (HarmOR59; [2]): 2.91 µM
ligand tuning of HarmOR42 (HarmOR42): minor ligand
Compound: OCCc1ccccc1 [2-Phenylethanol]
EAG response of HarmOR42 knock-out mutants compared with wild-type moths [1]: no significant difference
response of the HarmOR repertoire (HarmOR repertoire): still responded

EC50 (HarmOR23): 5.1 µM
EC50 (HarmOR40): 7.69 µM
Compound: CC(=O)OC/C=C(\C)CCC=C(C)C [Geranyl acetate]

Compound: C=CC(C)(O)CCC=C(C)C (centres unmarked) [Linalool]
EC50 (HarmOR12): 21.2 µM
EC50 (HarmOR36; EC50, HarmOR36): 1.16 µM
response of the HarmOR repertoire (HarmOR repertoire): still responded

EC50 (HarmOR31): 5.02 µM
Compound: CCC/C=C/COC(C)=O [(E)-2-Hexenyl acetate]

Compound: CCC/C=C/C=O [(E)-2-Hexen-1-al]
EC50 (HarmOR59): 3780 µM

EC50 (HarmOR52; HarmOR52, dose response in oocytes, unit M, read-out: EC50): 17.1 µM
Compound: CC1(C)[C@H]2CC=C(CO)[C@@H]1C2 [(1R)-(-)-Myrtenol]

EC50 (HarmOR12; HarmOR12, dose response in oocytes, unit M, read-out: EC50): 80.1 µM
EC50 (HarmOR36; HarmOR36, read-out: EC50): 4.68 µM
Compound: CC(C)=CCCC(C)CCO (stereo not drawn) [β-Citronellol]

ligand tuning of HarmOR42 (HarmOR42): not a ligand
Compound: CCCC/C=C\CCCCCCCCCC=O [Z11-16: Ald]
EAG response of HarmOR42 knock-out mutants compared with wild-type moths [1]: no difference

EC50 (HarmOR59; [2]): 1190 µM
Compound: CCc1ccc(C=O)cc1 [4-Ethylbenzaldehyde]

Compound: CC/C=C\CCO [(Z)-3-hexen-1-ol]
EC50 (HarmOR59): 1860 µM
EC50 (HarmOR52): 23.3 µM
